Measured values: patent US11572399B2, “Long-acting GIP peptide analogues” (University of Copenhagen, priority 2017, dated 2023)
Peptide text beside a SMILES is read from it. * marks the point of attachment. C16 diacid = O=C(O)CCCCCCCCCCCCCCC(=O)*; Palmitoyl = CCCCCCCCCCCCCCCC(=O)*

Molecular target: T1, human GIP receptor (Homo sapiens, UniProt P48546)
T1 construct: host or cells: COS-7, transient transfection (calcium phosphate), cDNA in pCMV-Script
T1 sequence (P48546 22-466): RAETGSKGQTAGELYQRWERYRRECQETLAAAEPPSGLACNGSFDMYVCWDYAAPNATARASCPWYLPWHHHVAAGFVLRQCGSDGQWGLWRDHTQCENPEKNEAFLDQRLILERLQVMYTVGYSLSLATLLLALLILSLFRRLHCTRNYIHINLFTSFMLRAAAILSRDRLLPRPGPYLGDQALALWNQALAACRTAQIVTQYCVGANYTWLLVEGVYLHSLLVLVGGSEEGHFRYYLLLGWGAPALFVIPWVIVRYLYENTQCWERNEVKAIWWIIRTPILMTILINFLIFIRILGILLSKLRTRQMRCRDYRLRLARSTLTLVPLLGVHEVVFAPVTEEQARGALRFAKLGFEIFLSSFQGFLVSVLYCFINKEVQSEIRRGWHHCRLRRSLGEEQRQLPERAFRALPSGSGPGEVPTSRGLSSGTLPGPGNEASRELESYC
Assay: cAMP accumulation assay, agonism (ligand alone)
Format: cell-based
Details: COS-7 cells, Table 1; for Emax: COS-7, intrinsic cAMP activity; for EC50: read-out: cAMP agonism nM (EC50)
Method: COS-7 cells were cultured at 10% CO2 and 37° C. in Dulbecco's modified Eagle's medium 1885 supplemented with 10% fetal bovine serum, 2 mM glutamine, 180 units/ml penicillin, and 45 µg/ml streptomycin. Transient transfection of the COS-7 cells for cAMP accumulation and competition binding was performed using the calcium phosphate precipitation method with the addition of chloroquine^46-47.
Transient transfected COS-7 cells expressing the human GIP receptor were seeded in white 96-well plates with a density of 3.5*10^4/well. The day after, the cells were washed twice with Hepes buffered saline (HBS) buffer and incubated with HBS and 1 mM 3-isobutyl-1-methylxanthine (IBMX) for 30 min at 37° C. To test for agonistic properties, ligands were added and incubated for 30 min at 37° C. In order to test for antagonistic properties, the cells were preincubated with the antagonists for 10 min prior to the addition of the agonist and subsequent incubated for 20 additional min. The HitHunter™ cAMP XS assay (DiscoveRx) was carried out according to the manufacturer's instructions.
IC50, EC50, and Ki values were determined by nonlinear regression. These were carried out with the GraphPad Prism 6.0 software (GraphPad, San Diego, Calif., USA) and Microsoft Excel™. Ki values were based on the formula for one class of binding sites in homologous competition binding studies and the Cheng Prussoffs formula, respectively (DeBlasi et al., 1989). To determine the HSA binding potential, the fold change in affinity (as determined by IC50) was calculated as IC50 (plus HSA)/IC50 (minus HSA).

SMILES	Emax	EC50	cAMP agonism Emax (intrinsic cAMP activity)
CC[C@H](C)[C@H](NC(=O)[C@H](CO)NC(=O)[C@H](Cc1ccc(O)cc1)NC(=O)[C@H](CC(=O)O)NC(=O)[C@H](CO)NC(=O)[C@@H](NC(=O)[C@H](Cc1ccccc1)NC(=O)[C@@H](NC(=O)CNC(=O)[C@@H](N)CCC(=O)O)[C@@H](C)O)[C@@H](C)CC)C(=O)N[C@@H](C)C(=O)N[C@@H](CCSC)C(=O)N[C@@H](CC(=O)O)C(=O)N[C@@H](CCCCN)C(=O)N[C@H](C(=O)N[C@@H](Cc1c[nH]cn1)C(=O)N[C@@H](CCC(N)=O)C(=O)N[C@@H](CCC(N)=O)C(=O)N[C@@H](CC(=O)O)C(=O)N[C@@H](Cc1ccccc1)C(=O)N[C@H](C(=O)N[C@@H](CC(N)=O)C(=O)N[C@@H](Cc1c[nH]c2ccccc12)C(=O)N[C@@H](CC(C)C)C(=O)N[C@@H](CC(C)C)C(=O)N[C@@H](CCCCNC(=O)CCCCCCCCCCCCCCC(=O)O)C(=O)N[C@@H](CCC(N)=O)C(=O)N[C@@H](CCCCN)C(N)=O)C(C)C)[C@@H](C)CC [AT317, [hGIP(3-30)NH2[A28K]-C16diacid/28]] (H-EGTFISDYSIAMDKIHQQDFVNWLLK(C16 diacid)QK-NH2; N-terminus assumed)	21.8%	62 nM	
CC[C@H](C)[C@H](NC(=O)[C@H](CO)NC(=O)[C@H](Cc1ccc(O)cc1)NC(=O)[C@H](CC(=O)O)NC(=O)[C@H](CO)NC(=O)[C@@H](NC(=O)[C@H](Cc1ccccc1)NC(=O)[C@@H](NC(=O)CNC(=O)[C@@H](N)CCC(=O)O)[C@@H](C)O)[C@@H](C)CC)C(=O)N[C@@H](C)C(=O)N[C@@H](CCSC)C(=O)N[C@@H](CC(=O)O)C(=O)N[C@@H](CCCCN)C(=O)N[C@H](C(=O)N[C@@H](Cc1c[nH]cn1)C(=O)N[C@@H](CCC(N)=O)C(=O)N[C@@H](CCC(N)=O)C(=O)N[C@@H](CC(=O)O)C(=O)N[C@@H](Cc1ccccc1)C(=O)N[C@H](C(=O)N[C@@H](CCCCNC(=O)CCCCCCCCCCCCCCC(=O)O)C(=O)N[C@@H](Cc1c[nH]c2ccccc12)C(=O)N[C@@H](CC(C)C)C(=O)N[C@@H](CC(C)C)C(=O)N[C@@H](C)C(=O)N[C@@H](CCC(N)=O)C(=O)N[C@@H](CCCCN)C(N)=O)C(C)C)[C@@H](C)CC [AT313, [hGIP(3-30)NH2[N24K]-C16diacid/24]] (H-EGTFISDYSIAMDKIHQQDFVK(C16 diacid)WLLAQK-NH2; N-terminus assumed)	7.2%		
CC[C@H](C)[C@H](NC(=O)[C@H](CO)NC(=O)[C@H](Cc1ccc(O)cc1)NC(=O)[C@H](CC(=O)O)NC(=O)[C@H](CO)NC(=O)[C@@H](NC(=O)[C@H](Cc1ccccc1)NC(=O)[C@@H](NC(=O)CNC(=O)[C@@H](N)CCCCNC(=O)CCCCCCCCCCCCCCC(=O)O)[C@@H](C)O)[C@@H](C)CC)C(=O)N[C@@H](C)C(=O)N[C@@H](CCSC)C(=O)N[C@@H](CC(=O)O)C(=O)N[C@@H](CCCCN)C(=O)N[C@H](C(=O)N[C@@H](Cc1c[nH]cn1)C(=O)N[C@@H](CCC(N)=O)C(=O)N[C@@H](CCC(N)=O)C(=O)N[C@@H](CC(=O)O)C(=O)N[C@@H](Cc1ccccc1)C(=O)N[C@H](C(=O)N[C@@H](CC(N)=O)C(=O)N[C@@H](Cc1c[nH]c2ccccc12)C(=O)N[C@@H](CC(C)C)C(=O)N[C@@H](CC(C)C)C(=O)N[C@@H](C)C(=O)N[C@@H](CCC(N)=O)C(=O)N[C@@H](CCCCN)C(N)=O)C(C)C)[C@@H](C)CC [AT294, [hGIP(3-30)NH2[E3K]-C16diacid/3]]	74%		
CC[C@H](C)[C@H](NC(=O)[C@H](CCCCN)NC(=O)[C@H](CC(=O)O)NC(=O)[C@H](CCSC)NC(=O)[C@H](C)NC(=O)[C@H](CCCCNC(=O)CCCCCCCCCCCCCCC(=O)O)NC(=O)[C@H](CO)NC(=O)[C@H](Cc1ccc(O)cc1)NC(=O)[C@H](CC(=O)O)NC(=O)[C@H](CO)NC(=O)[C@@H](NC(=O)[C@H](Cc1ccccc1)NC(=O)[C@@H](NC(=O)CNC(=O)[C@@H](N)CCC(=O)O)[C@@H](C)O)[C@@H](C)CC)C(=O)N[C@@H](Cc1c[nH]cn1)C(=O)N[C@@H](CCC(N)=O)C(=O)N[C@@H](CCC(N)=O)C(=O)N[C@@H](CC(=O)O)C(=O)N[C@@H](Cc1ccccc1)C(=O)N[C@H](C(=O)N[C@@H](CC(N)=O)C(=O)N[C@@H](Cc1c[nH]c2ccccc12)C(=O)N[C@@H](CC(C)C)C(=O)N[C@@H](CC(C)C)C(=O)N[C@@H](C)C(=O)N[C@@H](CCC(N)=O)C(=O)N[C@@H](CCCCN)C(N)=O)C(C)C [AT303, [hGIP(3-30)NH2[I12K]-C16diacid/12]] (H-EGTFISDYSK(C16 diacid)AMDKIHQQDFVNWLLAQK-NH2; N-terminus assumed)	24.2%	28 nM	
CCCCCCCCCCCCCCCC(=O)NCCCC[C@H](NC(=O)[C@@H](NC(=O)[C@H](CCCNC(=N)N)NC(=O)[C@H](CC(=O)O)NC(=O)[C@H](CCSC)NC(=O)[C@H](C)NC(=O)[C@@H](NC(=O)[C@H](CO)NC(=O)[C@H](Cc1ccc(O)cc1)NC(=O)[C@H](CC(=O)O)NC(=O)[C@H](CO)NC(=O)[C@@H](NC(=O)[C@H](Cc1ccccc1)NC(=O)[C@@H](NC(=O)CNC(=O)[C@@H](N)CCC(=O)O)[C@@H](C)O)[C@@H](C)CC)[C@@H](C)CC)[C@@H](C)CC)C(=O)N[C@@H](CCC(N)=O)C(=O)N[C@@H](CCC(N)=O)C(=O)N[C@@H](CC(=O)O)C(=O)N[C@@H](Cc1ccccc1)C(=O)N[C@H](C(=O)N[C@@H](CC(N)=O)C(=O)N[C@@H](Cc1c[nH]c2ccccc12)C(=O)N[C@@H](CC(C)C)C(=O)N[C@@H](CC(C)C)C(=O)N[C@@H](C)C(=O)N[C@@H](CCC(N)=O)C(=O)N[C@@H](CCCNC(=N)N)C(N)=O)C(C)C [AT144, [hGIP(3-30)NH2[K16R; H18K; K30R]-C16/18]] (H-EGTFISDYSIAMDRIK(Palmitoyl)QQDFVNWLLAQR-NH2; N-terminus assumed)	0%		
CC[C@H](C)[C@H](NC(=O)[C@H](CO)NC(=O)[C@H](Cc1ccc(O)cc1)NC(=O)[C@H](CC(=O)O)NC(=O)[C@H](CO)NC(=O)[C@@H](NC(=O)[C@H](Cc1ccccc1)NC(=O)[C@@H](N)[C@@H](C)O)[C@@H](C)CC)C(=O)N[C@@H](C)C(=O)N[C@@H](CCSC)C(=O)N[C@@H](CC(=O)O)C(=O)N[C@@H](CCCCN)C(=O)N[C@H](C(=O)N[C@@H](Cc1c[nH]cn1)C(=O)N[C@@H](CCC(N)=O)C(=O)N[C@@H](CCC(N)=O)C(=O)N[C@@H](CC(=O)O)C(=O)N[C@@H](Cc1ccccc1)C(=O)N[C@H](C(=O)N[C@@H](CC(N)=O)C(=O)N[C@@H](Cc1c[nH]c2ccccc12)C(=O)N[C@@H](CC(C)C)C(=O)N[C@@H](CC(C)C)C(=O)N[C@@H](C)C(=O)N[C@@H](CCC(N)=O)C(=O)N[C@@H](CCCCNC(=O)CCCCCCCCCCCCCCC(=O)O)C(N)=O)C(C)C)[C@@H](C)CC [AT372, [hGIP(5-30)NH2[Q30K]-C16diacid/30]]	6%		
CCCCCCCCCCCCCC(=O)NCCCC[C@H](NC(=O)[C@H](CCC(N)=O)NC(=O)[C@H](C)NC(=O)[C@H](CC(C)C)NC(=O)[C@H](CC(C)C)NC(=O)[C@H](Cc1c[nH]c2ccccc12)NC(=O)[C@H](CC(N)=O)NC(=O)[C@@H](NC(=O)[C@H](Cc1ccccc1)NC(=O)[C@H](CC(=O)O)NC(=O)[C@H](CCC(N)=O)NC(=O)[C@H](CCC(N)=O)NC(=O)[C@H](Cc1c[nH]cn1)NC(=O)[C@@H](NC(=O)[C@H](CCCCN)NC(=O)[C@H](CC(=O)O)NC(=O)[C@H](CCSC)NC(=O)[C@H](C)NC(=O)[C@@H](NC(=O)[C@H](CO)NC(=O)[C@H](Cc1ccc(O)cc1)NC(=O)[C@H](CC(=O)O)NC(=O)[C@H](CO)NC(=O)[C@@H](NC(=O)[C@H](Cc1ccccc1)NC(=O)[C@@H](N)[C@@H](C)O)[C@@H](C)CC)[C@@H](C)CC)[C@@H](C)CC)C(C)C)C(N)=O [AT123, [hGIP(5-30)NH2—C14/30]]	64%		
CC[C@H](C)[C@H](NC(=O)[C@H](CCCCNC(=O)CCCCCCCCCCCCCCC(=O)O)NC(=O)[C@H](Cc1ccc(O)cc1)NC(=O)[C@H](CC(=O)O)NC(=O)[C@H](CO)NC(=O)[C@@H](NC(=O)[C@H](Cc1ccccc1)NC(=O)[C@@H](NC(=O)CNC(=O)[C@@H](N)CCC(=O)O)[C@@H](C)O)[C@@H](C)CC)C(=O)N[C@@H](C)C(=O)N[C@@H](CCSC)C(=O)N[C@@H](CC(=O)O)C(=O)N[C@@H](CCCCN)C(=O)N[C@H](C(=O)N[C@@H](Cc1c[nH]cn1)C(=O)N[C@@H](CCC(N)=O)C(=O)N[C@@H](CCC(N)=O)C(=O)N[C@@H](CC(=O)O)C(=O)N[C@@H](Cc1ccccc1)C(=O)N[C@H](C(=O)N[C@@H](CC(N)=O)C(=O)N[C@@H](Cc1c[nH]c2ccccc12)C(=O)N[C@@H](CC(C)C)C(=O)N[C@@H](CC(C)C)C(=O)N[C@@H](C)C(=O)N[C@@H](CCC(N)=O)C(=O)N[C@@H](CCCCN)C(N)=O)C(C)C)[C@@H](C)CC [AT302, [hGIP(3-30)NH2[S11K]-C16diacid/11]] (H-EGTFISDYK(C16 diacid)IAMDKIHQQDFVNWLLAQK-NH2; N-terminus assumed)			no ag.
